Measured values as given in patent US10844051B2, “Substituted oxazoles for the treatment of cancer” (THE ROYAL INSTITUTION FOR THE ADCANCEMENT OF …, priority 2015, dated 2020).
Entries after “also recorded” stand apart in the source; their conditions may differ.

Columns and labels:
[1] = molecular target: T1, ETV1 (Homo sapiens, UniProt P50549); assay: ETV1-dependent reporter assay in HEK293 cells; assay type: cell-based; details: 48 hours
T1 construct: expressed in transfected cells; host or cells: HEK293
T1 sequence (P50549 1-477): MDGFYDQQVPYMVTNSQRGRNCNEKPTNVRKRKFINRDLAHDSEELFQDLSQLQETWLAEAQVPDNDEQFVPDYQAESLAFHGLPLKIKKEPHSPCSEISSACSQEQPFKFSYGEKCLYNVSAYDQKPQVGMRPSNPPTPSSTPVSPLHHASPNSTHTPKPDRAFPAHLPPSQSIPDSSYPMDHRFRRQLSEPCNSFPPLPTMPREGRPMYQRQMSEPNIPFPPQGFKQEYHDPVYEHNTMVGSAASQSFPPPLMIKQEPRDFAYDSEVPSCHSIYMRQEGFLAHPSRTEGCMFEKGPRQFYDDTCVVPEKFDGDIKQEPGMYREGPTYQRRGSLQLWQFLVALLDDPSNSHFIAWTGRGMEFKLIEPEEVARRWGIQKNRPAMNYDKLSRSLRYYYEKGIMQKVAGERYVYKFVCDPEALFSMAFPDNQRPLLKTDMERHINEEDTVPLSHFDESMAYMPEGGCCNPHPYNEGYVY
Procedure: (§1) HEK293 cells were transiently transfected with empty vector (for the NT) or ERG-expressing plasmid as well as pRL-TK (internal control) and PUx3-Luc reporter. Cells were then exposed to DMSO vehicle or compounds at designated doses for 48 hours. Experiments were done in triplicate.
Experiments were done as described above in FIG. 1.1a) except that ERG plasmid was replaced by ETV1 plasmid.

[2] = molecular target: T2, ERG (Homo sapiens, UniProt P11308); assay: Surface Plasmon Resonance (SPR) analysis on amine-coupled ERG; assay type: binding
T2 sequence (P11308 1-486 isoform P11308-3): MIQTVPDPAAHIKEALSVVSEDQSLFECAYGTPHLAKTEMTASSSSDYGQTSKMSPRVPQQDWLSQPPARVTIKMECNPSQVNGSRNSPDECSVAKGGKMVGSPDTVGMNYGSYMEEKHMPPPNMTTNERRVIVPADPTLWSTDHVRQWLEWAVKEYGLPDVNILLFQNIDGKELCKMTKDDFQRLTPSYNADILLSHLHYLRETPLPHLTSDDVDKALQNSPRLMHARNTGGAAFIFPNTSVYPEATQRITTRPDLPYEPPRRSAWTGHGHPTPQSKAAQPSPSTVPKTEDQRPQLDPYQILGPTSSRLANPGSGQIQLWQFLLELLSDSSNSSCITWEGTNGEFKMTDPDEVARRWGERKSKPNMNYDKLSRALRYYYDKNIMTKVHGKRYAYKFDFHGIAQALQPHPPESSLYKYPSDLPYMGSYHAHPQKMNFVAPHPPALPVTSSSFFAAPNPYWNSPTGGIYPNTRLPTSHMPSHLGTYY
Procedure: Steady-state kinetics of compound 648, YK-4-279 (positive control) and bicalutamide (Bic) (negative control) over amine-coupled ERG surfaces with 50 μM injection (25 μL/min×120 sec association+120 sec dissociation). High-density ERG (6000 RU) and reference surface (no ERG) were amine-coupled to CM5 sensors using BIACORE 3000 instrumentation. YK-4-279 is a known ERG inhibitor. Bic is an antagonist of the androgen receptor.
FIG. 1.5b) Preliminary SPR data to characterize binding affinity of compound 648. Rapid on/off kinetics for compound 648 when titrated over amine-coupled ERG surfaces at 0, 10, 20, 30, 40, and 50 μM (25 μL/min×120 sec association+120 sec dissociation).

[3] = test system: EZH2, c-Myc and ERG expression in VCaP cells; assay: Expression of EZH2, c-Myc and ERG in VCaP cells; assay type: cell-based; details: 10 μM, 72 hours
Procedure: VCaP cells were exposed to DMSO vehicle control, 648, 698 and 891 at 10 μM for 72 hours in DMEM medium plus 10% FBS or phenol red-free DMEM medium plus 10% charcoal-stripped FBS (CS-FBS).

[4] = test system: VCaP cells; assay: Matrigel invasion assay, VCaP; assay type: cell-based; details: 48 hours
Procedure: (§2) Invasion assay was performed using (8.0 μm pore size) BD Matrigel Invasion chambers in 24-well plate (Catalog: 354480, BD Biosc.). 750 μL medium (with 20% FBS) was added into lower chamber of each well (DMEM for VCaP, RPMI 1640 for C4-2B and DU145). Next, 5×10^5 VCaP or 5×10^5 C4-2B or 1×10^4DU145 cells in 500 μL medium (with 0.5% FBS) were seeded into the upper chamber of each well. DMSO vehicle or compounds in DMSO solution were added into upper chamber to reach the designated doses. After 48 hours incubation, the invasive cells attached to the lower surface of the membrane insert were fixed in 10% formalin at room temperature for 30 minutes and stained with 0.05% crystal violet. The number of invasive cells was then counted under a microscope. Invasion experiments were performed in duplicate. ***p<0.0001 when compared with vehicle control.

[5] = test system: C4-2B cells; assay: Matrigel invasion assay, C4-2B; assay type: cell-based; details: 48 hours
Procedure: as §2

[6] = molecular target: T2, ERG; assay: ERG-dependent reporter assay in HEK293 cells; assay type: cell-based; set-up: expressed in transfected cells; host or cells: HEK293; details: PUx3-Luc reporter, 48 hours, designated doses
Procedure: as §1

[7] = test system: LNCaP cells; assay: MTT cytotoxicity assay in ETV1-positive LNCaP cells; assay type: cell-based; details: 72 hours
Procedure: FIG. 1.8 Cytotoxicity of compounds 827 and 832 in the ETV1-postive LNCaP cells as evaluated by MTT assay (72 hours).

[8] = molecular target: T3, human GATA2 (Homo sapiens, UniProt P23769); assay: GATA2-dependent reporter assay in IHH cells; assay type: cell-based; details: GATA-Luc reporter, 48 h
T3 construct: expressed in transfected cells; host or cells: IHH
T3 sequence (P23769 1-480): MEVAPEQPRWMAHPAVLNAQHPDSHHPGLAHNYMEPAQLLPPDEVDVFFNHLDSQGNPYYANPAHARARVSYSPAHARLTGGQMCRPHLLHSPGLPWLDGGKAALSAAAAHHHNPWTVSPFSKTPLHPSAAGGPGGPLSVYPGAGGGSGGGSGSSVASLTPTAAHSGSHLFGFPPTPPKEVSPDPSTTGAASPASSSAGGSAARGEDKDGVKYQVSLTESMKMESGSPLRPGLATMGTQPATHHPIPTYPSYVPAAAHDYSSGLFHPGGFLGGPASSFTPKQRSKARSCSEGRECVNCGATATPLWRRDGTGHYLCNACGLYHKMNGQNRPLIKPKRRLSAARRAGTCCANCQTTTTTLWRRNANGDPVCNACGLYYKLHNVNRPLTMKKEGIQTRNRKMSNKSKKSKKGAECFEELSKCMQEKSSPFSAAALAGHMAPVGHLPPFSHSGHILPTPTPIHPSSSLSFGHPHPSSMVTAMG
Procedure: K7174 is a known GATA2 inhibitor. The IHH cells were transiently transfected with empty vector (for the NT) or human GATA2-expressing plasmid as well as pRL-TK (internal control) and GATA-Luc reporter plasmids. Cells were exposed to DMSO vehicle or compounds for 48 h. Experiments were in triplicate.

[9] = molecular target: T4, human GATA3 (Homo sapiens, UniProt P23771); assay: GATA3-dependent reporter assay in IHH cells; assay type: cell-based; details: 48 hours
T4 construct: expressed in transfected cells; host or cells: IHH
T4 sequence (P23771 whole entry): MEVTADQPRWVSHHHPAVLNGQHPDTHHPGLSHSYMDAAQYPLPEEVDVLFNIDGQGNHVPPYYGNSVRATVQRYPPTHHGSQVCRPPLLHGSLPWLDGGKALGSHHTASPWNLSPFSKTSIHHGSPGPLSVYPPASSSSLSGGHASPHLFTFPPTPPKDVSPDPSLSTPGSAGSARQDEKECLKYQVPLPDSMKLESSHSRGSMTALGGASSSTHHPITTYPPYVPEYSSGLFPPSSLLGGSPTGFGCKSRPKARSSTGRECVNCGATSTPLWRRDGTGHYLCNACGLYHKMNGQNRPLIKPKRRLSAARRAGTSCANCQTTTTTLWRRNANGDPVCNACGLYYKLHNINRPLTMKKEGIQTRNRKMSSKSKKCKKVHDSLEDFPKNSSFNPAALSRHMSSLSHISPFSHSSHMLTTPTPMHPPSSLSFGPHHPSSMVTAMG
Procedure: The IHH cells were transiently transfected with empty vector (for the NT) or human GATA3-expressing plasmid as well as pRL-TK (internal control) and GATA-Luc reporter plasmids. Cells were exposed to DMSO vehicle or compounds for 48 hours. Experiments were done in triplicate.

[10] = molecular target: T5, recombinant protein of human GATA2 (Homo sapiens, UniProt P23769); assay: SPR analysis on amine-coupled GATA2; assay type: binding; details: 50 μM each
T5 sequence (P23769 1-480): T3 sequence (P23769 1-480)
Text: In embodiments of the invention, the androgen-bound AR is regressing GATA2 expression and inhibition of AR via castration or use of antiandrogen releases such expression. […] Overexpression of GATA2 confers resistance to antiandrogen bicalutamide (Bic) (FIG. 2.9). Compound 673 is effective against the LNCaP stably transfected with GATA2-expressing plasmid (referred to as LNCaP-GATA2 cells) (FIG. 2.8).

[11] = molecular target: T6, human STING (hSTING) (Homo sapiens, UniProt Q86WV6); assay: hSTING ISRE-luc reporter assay in 293T cells; assay type: cell-based; details: 24 hours
T6 construct: expressed in transfected cells; host or cells: 293T
T6 sequence (Q86WV6 whole entry H232R): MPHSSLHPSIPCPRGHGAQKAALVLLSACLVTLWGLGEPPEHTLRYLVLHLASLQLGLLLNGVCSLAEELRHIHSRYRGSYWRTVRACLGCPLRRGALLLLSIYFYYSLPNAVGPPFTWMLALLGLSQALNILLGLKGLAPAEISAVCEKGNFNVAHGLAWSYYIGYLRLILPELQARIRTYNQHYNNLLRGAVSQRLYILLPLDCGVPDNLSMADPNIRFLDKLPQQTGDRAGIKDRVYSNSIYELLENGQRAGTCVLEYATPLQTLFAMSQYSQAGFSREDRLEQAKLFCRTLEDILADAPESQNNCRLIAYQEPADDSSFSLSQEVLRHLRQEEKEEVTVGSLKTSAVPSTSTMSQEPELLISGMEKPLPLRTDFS
Procedure: ISRE-luc (reporter), pRL-TK (internal control) and hSTING-expressing plasmids were transiently transfected into 293T cells. Cells were exposed to DMSO vehicle control or compounds for 24 hours. Experiments were done in triplicate.

[12] = molecular target: T7, mouse STING (mSTING) (Mus musculus, UniProt Q3TBT3); assay: mSTING ISRE-luc reporter assay in 293T cells; assay type: cell-based; details: 24 hours
T7 construct: expressed in transfected cells; host or cells: 293T
T7 sequence (Q3TBT3 1-378): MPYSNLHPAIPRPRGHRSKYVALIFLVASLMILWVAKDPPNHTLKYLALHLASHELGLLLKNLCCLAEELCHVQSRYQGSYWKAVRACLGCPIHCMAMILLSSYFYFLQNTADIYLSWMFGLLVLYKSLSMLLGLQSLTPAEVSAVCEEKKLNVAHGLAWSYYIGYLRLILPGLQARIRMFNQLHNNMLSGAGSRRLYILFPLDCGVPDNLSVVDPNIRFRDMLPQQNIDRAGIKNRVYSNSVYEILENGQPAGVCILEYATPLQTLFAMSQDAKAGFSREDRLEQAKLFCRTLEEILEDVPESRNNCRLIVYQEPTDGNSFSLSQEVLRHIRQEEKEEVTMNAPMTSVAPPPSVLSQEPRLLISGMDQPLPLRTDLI
Procedure: ISRE-luc (reporter), pRL-TK (internal control) and mSTING-expressing plasmids were transiently transfected into 293T cells. Cells were exposed to DMSO vehicle control or compounds for 24 hours. Experiments were done in triplicate.

[13] = molecular target: human STING (Homo sapiens, UniProt Q86WV6); assay: SPR analysis on amine-coupled human STING; assay type: binding; details: 0-50 μM, 2-fold dilution series
Chain of human STING (Q86WV6 whole entry H232R): as the sequence (Q86WV6 whole entry H232R) above

[14] = test system: H23 KRAS-mutant NSCLC cells; assay: MTT assay, H23; assay type: cell-based; details: endogenous KRAS 12C, 72 hours
Procedure: FIG. 2.7 Compound 673 is cytotoxic in KRAS-mutant NSCLC cells (A549 and H23), but is not toxic the KRAS wild-type NSCLC cells (H322). Cells were exposed to vehicle or compounds (μM) for 72 hours. Viable cells were evaluated by MTT assays.
(§3) Panc 10.05, H23 and HCT-116 cells express endogenous KRAS 12D, 12C and 13D mutants, respectively. Cells were exposed to DMSO vehicle or compounds at designated doses for 72 hours. Experiments were done in triplicate.

[15] = test system: phosphorylation of ERK in Panc 10.05 cells; assay: Western blot, phosphorylation of ERK in Panc 10.05 cells; assay type: cell-based; details: 10 μM, 24 hours
Procedure: C-PARP, cleaved PARP. Panc10.05 cells were exposed to DMSO vehicle or compounds at designated doses for 24 hours.
Panc10.05 cells were exposed to DMSO vehicle or compounds at designated doses for 24 hours.

[16] = test system: phosphorylation of ERK in HCT-116 cells; assay: Western blot, phosphorylation of ERK in HCT-116 cells; assay type: cell-based; details: 10 μM, 24 hours
Procedure: HCT-116 cells were exposed to DMSO vehicle or compounds at designated doses for 24 hours.

[17] = test system: Panc10.05 pancreatic cancer cells; assay: MTT analysis, Panc10.05; assay type: cell-based; details: endogenous KRAS 12D, 72 hours
Procedure: as §3

[18] = test system: HCT-116 colorectal cancer cells; assay: MTT analysis, HCT-116; assay type: cell-based; details: endogenous KRAS 13D, 72 hours
Procedure: as §3

Oc1cccc(-c2nc(Cc3c[nH]c4ccccc34)oc2-c2cccc(O)c2)c1 [Compound 648]
ETV1 inhibition in ETV1-dependent reporter assay [1]: ETV1 inhibitors | direct binding with human ERG protein (SPR) ([2]; 50 μM injection, amine-coupled ERG): direct binding | KD for ERG, steady-state affinity model (SPR) ([2]; titrated at 0-50 μM, preliminary data): low micromolar | inhibition of expression of EZH2, c-Myc and ERG [3]: inhibit expression of EZH2, c-Myc and ERG | inhibition of invasion of VCaP cells [4]: potently inhibits invasion | inhibition of invasion of C4-2B cells [5]: potently inhibits invasion | ERG inhibition in ERG-dependent reporter assay [6]: potent inhibitor of ERG; also recorded: ERG inhibitors

c1coc(-c2nc(Cc3c[nH]c4ccccc34)[nH]c2-c2ccco2)c1 [Compound 832]
ETV1 inhibition in ETV1-dependent reporter assay [1]: ETV1 inhibitors | cytotoxicity in ETV1-positive LNCaP cells (MTT) [7]: cytotoxic

c1coc(-c2nc(CCCc3c[nH]c4ccccc34)[nH]c2-c2ccco2)c1 [Compound 817]
GATA2 inhibition in GATA2-dependent reporter assay [8]: GATA2 inhibitors | activity against GATA3 in GATA3-dependent reporter assay ([9]; 10 μM): inactive against GATA3 | activity against GATA3 in GATA3-dependent reporter assay ([9]; compounds at 5 μM): inactive against GATA3 | binding to amine-coupled GATA2 (SPR) [10]: Direct binding; also recorded: Specific binding | activation of hSTING in ISRE-luc reporter assay [11]: activate hSTING | activation of mSTING in ISRE-luc reporter assay [12]: activate mouse STING (mSTING) | binding to amine-coupled human STING (SPR) [13]: Specific, dose-dependent binding; also recorded: Direct binding

N#CCN(CCc1c[nH]c2ccccc12)Cc1nc(-c2cccc(F)c2)c(-c2cccc(F)c2)[nH]1 [Compound 1186]
inhibition of proliferation of H23 cells (MTT) [14]: dose-dependently inhibit proliferation | suppression of phosphorylation of ERK (Western blot) [15]: potently suppressed phosphorylation of ERK | suppression of phosphorylation of ERK (Western blot) [16]: potently suppressed phosphorylation of ERK | inhibition of proliferation of Panc10.05 cells (MTT) [17]: dose-dependently inhibit proliferation | inhibition of proliferation of HCT-116 cells (MTT) [18]: dose-dependently inhibit proliferation

c1coc(-c2nc(Cc3c[nH]c4ccccc34)oc2-c2ccco2)c1 [Compound 827]
ETV1 inhibition in ETV1-dependent reporter assay [1]: ETV1 inhibitors | cytotoxicity in ETV1-positive LNCaP cells (MTT) [7]: cytotoxic
